Data reported in patent EP3915546A1, “USE OF ACID AS SOLVENT FOR PRECIPITATIONS” (leon-nanodrugs GmbH, priority 2020, dated 2021).

Assays:
Assay type in all cases: physicochemical
[1] = Thermodynamic saturation solubility in solvents and their mixtures with water (24 h stirring at room temperature, HPLC)
Method: Zur Bestimmung der thermodynamischen Sättigungslöslichkeit einer Substanz in einem bestimmten Lösungsmittel wird zunächst zur Orientierung eine Literaturrecherche durchgeführt, um einen ersten groben Richtwert zu erhalten. Danach wurden 500 mg (und gegebenenfalls mehr) des Wirkstoffpulvers eingewogen und in 5 ml des Lösungsmittels unter leichtem Rühren suspendiert. Falls das Pulver vollständig in Lösung ging, wurde zusätzlich 100 mg (oder iterative nochmalige Zugabe der initial eingewogenen Menge) Feststoff zugesetzt. Dies wurde wiederholt, bis sich ein Bodensatz bildete.
Die feststoff-enthaltende Mischung wurde verschlossen und 24 Stunden bei Raumtemperatur gerührt. Nach 24 Stunden wurde der Überstand von Bodensatz getrennt, zentrifugiert (Filtration ist nahezu unmöglich) und zur Quantifizierung mit der mobilen Phase der HPLC-Methode verdünnt.
Ein weiterer Teil des zentrifugierten Überstandes wurde unter Rühren mit demineralisiertem Wasser im Volumenverhältnis von 1:1 gemischt. Dazu wurde Wasser vorgelegt und die Wirkstofflösung unter Rühren oder Schütteln zu pipettiert. Dabei fiel Wirkstoff aus. Der Überstand wurde nach 3 Stunden von Bodensatz getrennt, zentrifugiert und zur Quantifizierung mittels HPLC verdünnt. Der Verdünnungsschritt wird grob abgeschätzt, Zielkonzentration sind z. B. 100 µg/mL je nach Wirkstoff, um im Linearitätsbereich des Detektors zu bleiben. Liegt die Konzentration zu hoch oder zu niedrig wird der Verdünnungsschritt angepasst. Die Verdünnung erfolgte mit einem zu mobilen Phase kompatiblen Lösungsmittelgemisch (z. B. Methanol vorlegen, Probe zugeben, Wasser zugeben). Falls die Substanz in diesem Lösungsmittelgemisch in dieser Verdünnung nicht löslich war, wurde die Verdünnung mit reinem organischem Lösungsmittel wiederholt.
Dieses Vorgehen wurde für die Mischungsverhältnisse von 1:2, 1:3 und 1:10 wiederholt.

[2] = Microscopy of the suspension after precipitation in a MikroJetReaktor (particle growth)
Method: • Figur 1: Mikroskopische Aufnahme von ENZ, entstanden durch Mischen von 1 Teil einer Lösung von 100 mg/ml ENZ in Aceton mit 1 Teil Wasser. Maßstab: Der Balken im Bild entspricht 20 µm. (a) Aufnahme unmittelbar nach Fällung. (b) Aufnahme ca. 12 Stunden nach der Fällung. • Figur 2: Mikroskopische Aufnahme von ENZ-Partikeln. Entstanden durch Mischen von 1 Teil einer Lösung von 100 mg/ml ENZ in Eisessig mit 10 Teilen Wasser. Maßstab: Der Balken im Bild entspricht 20 µm. (a) Aufnahme ca. 1 Stunde nach Fällung. (b) Aufnahme ca. 18 Stunden nach der Fällung.
100 mg Enzalutamide werden unter Rühren in 1 ml Aceton bei Raumtemperatur gelöst (100 mg/ml). Diese Lösung wird in einem MikroJetReaktor mit Wasser gemischt in einem Mischungsverhältnis von 1 Teil Enzalutamide in Aceton zu 1,01 Teilen Wasser. Die erhaltene Suspension wird mikroskopiert (Figur. 1).
100 mg Enzalutamide werden unter Rühren in 1 ml Eisessig bei Raumtemperatur gelöst (100 mg/ml). Diese Lösung wird in einem MikroJetReaktor mit Wasser gemischt in einem Mischungsverhältnis von 1 Teil Enzalutamide in Eisessig zu 10 Teilen Wasser. Die erhaltene Suspension wird mikroskopiert (Figur 3).

[3] = Precipitation with water: total concentration in suspension and share dissolved in the mother liquor
Method: Für die pharmazeutische Weiterverarbeitung der Suspension zu einem Arzneimittel ist es wünschenswert, eine Wirkstoffkonzentration von mehr als 50 mg/ml zu erzeugen. Tabelle 4: Erzeugung von ENZ Partikeln durch Fällung. Gesamtkonzentration an ENZ in der Suspension (mg/ml) und der Anteil (%) des in der Mutterlauge gelösten ENZ
Wird eine Lösung von 100 mg/ml Enzalutamide in Aceton mit gleichem Teil an Wasser gemischt, so fällt ein Großteil des Enzalutamides aus, da dessen Sättigungskonzentration überschritten wird. Die resultierende Mischung enthält 50% Aceton und eine Gesamtmenge von 50 mg/ml Enzalutamide. Davon werden 7,87 mg/ml in der Mutterlauge gelöst vorliegen (Tabelle 3, Nr. 2, Aceton); dies entspricht 15,7 % der Gesamtmenge von 50 mg/ml (Tabelle 4, Nr. 2, Aceton). Diese gelöste Menge an Enzalutamide (15,7 % der Gesamtmenge) ist zu hoch und führt zu einem unerwünschten und schnellen Wachstum der Partikel.

[4] = Aceton, Lösungsmittel-Gehalt der Mischung 100 %
[5] = Aceton/Wasser, Lösungsmittel-Gehalt der Mischung 25 %
[6] = Aceton/Wasser, Lösungsmittel-Gehalt der Mischung 33,3 %
[7] = Aceton/Wasser, Lösungsmittel-Gehalt der Mischung 50 %
[8] = Eisessig, Lösungsmittel-Gehalt der Mischung 100 %
[9] = Eisessig/Wasser, Lösungsmittel-Gehalt der Mischung 9,09 %
[10] = Eisessig/Wasser, Lösungsmittel-Gehalt der Mischung 25 %
[11] = Eisessig/Wasser, Lösungsmittel-Gehalt der Mischung 33,3 %
[12] = Eisessig/Wasser, Lösungsmittel-Gehalt der Mischung 50 %
[13] = THF, Lösungsmittel-Gehalt der Mischung 100 %
[14] = THF/Wasser, Lösungsmittel-Gehalt der Mischung 25 %
[15] = THF/Wasser, Lösungsmittel-Gehalt der Mischung 33,3 %
[16] = THF/Wasser, Lösungsmittel-Gehalt der Mischung 50 %
[17] = Aceton/Wasser, Lösungsmittel-Gehalt der Mischung 9,09 %
[18] = Ameisensäure/Wasser, Lösungsmittel-Gehalt der Mischung 9,09 %
[19] = Ethanol, Lösungsmittel-Gehalt der Mischung 100 %
[20] = Ethanol/Wasser, Lösungsmittel-Gehalt der Mischung 9,09 %
[21] = Ethanol/Wasser, Lösungsmittel-Gehalt der Mischung 25 %
[22] = Ethanol/Wasser, Lösungsmittel-Gehalt der Mischung 33,3 %
[23] = Ethanol/Wasser, Lösungsmittel-Gehalt der Mischung 50 %
[24] = THF/Wasser, Lösungsmittel-Gehalt der Mischung 9,09 %

CNC(=O)c1ccc(N2C(=S)N(c3ccc(C#N)c(C(F)(F)F)c3)C(=O)C2(C)C)cc1F [ENZ, Enzalutamid]
Sättigungslöslichkeit von ENZ [1, 4]: 358 mg/mL | Sättigungslöslichkeit von ENZ [1, 5]: 0,233 mg/ml | Sättigungslöslichkeit von ENZ [1, 6]: 0,537 mg/ml | Sättigungslöslichkeit von ENZ [1, 7]: 7,87 mg/ml | Sättigungslöslichkeit von ENZ [1, 8]: 155,4 mg/ml | Sättigungslöslichkeit von ENZ [1, 9]: 0,086 mg/ml | Sättigungslöslichkeit von ENZ [1, 10]: 0,112 mg/ml | Sättigungslöslichkeit von ENZ [1, 11]: 0,294 mg/ml | Sättigungslöslichkeit von ENZ [1, 12]: 2,044 mg/ml | Sättigungslöslichkeit von ENZ ([1]; Eisessig/Wasser, Lösungsmittel-Gehalt der Mischung 50 %, listed as Enzalutamide): 2,04 mg/ml | Sättigungslöslichkeit von ENZ [1, 13]: 364 mg/mL | Sättigungslöslichkeit von ENZ [1, 14]: 0,365 mg/ml | Sättigungslöslichkeit von ENZ [1, 15]: 2,68 mg/ml | Sättigungslöslichkeit von ENZ [1, 16]: 16,9 mg/ml | Particles seen by microscopy after precipitation ([2]; 100 mg/ml in Aceton mixed with 1,01 Teilen Wasser in a MikroJetReaktor): Mikropartikel, die innerhalb von 12 Stunden zu großen Nadeln wachsen | Particles seen by microscopy after precipitation ([2]; 100 mg/ml in Eisessig mixed with 10 Teilen Wasser in a MikroJetReaktor): im Vergleich zu Aceton deutlich kleinere Partikel, die in Laufe von 18 Stunden zu Nadeln wachsen | ENZ in Lösung bei Fällung aus (% der Gesamtmenge in Suspension) ([3]; Aceton, Lösungsmittel-Gehalt der Suspension 100 %, ENZ in Suspension 100 mg/ml): 100% | ENZ in Lösung bei Fällung aus (% der Gesamtmenge in Suspension) ([3]; Eisessig, Lösungsmittel-Gehalt der Suspension 100 %, ENZ in Suspension 100 mg/ml): 100% | ENZ in Lösung bei Fällung aus (% der Gesamtmenge in Suspension) ([3]; Fällung aus Aceton with Wasser, Lösungsmittel-Gehalt der Suspension 25 %, ENZ in Suspension 25 mg/ml): 0,93% | ENZ in Lösung bei Fällung aus (% der Gesamtmenge in Suspension) ([3]; Fällung aus Aceton with Wasser, Lösungsmittel-Gehalt der Suspension 33,3 %, ENZ in Suspension 33,3 mg/ml): 1,61% | ENZ in Lösung bei Fällung aus (% der Gesamtmenge in Suspension) ([3]; Fällung aus Aceton with Wasser, Lösungsmittel-Gehalt der Suspension 50 %, ENZ in Suspension 50 mg/ml): 15,7% | ENZ in Lösung bei Fällung aus (% der Gesamtmenge in Suspension) ([3]; Fällung aus Eisessig with Wasser, Lösungsmittel-Gehalt der Suspension 9,09 %, ENZ in Suspension 9,1 mg/ml): 0,95% | ENZ in Lösung bei Fällung aus (% der Gesamtmenge in Suspension) ([3]; Fällung aus Eisessig with Wasser, Lösungsmittel-Gehalt der Suspension 25 %, ENZ in Suspension 25 mg/ml): 0,45% | ENZ in Lösung bei Fällung aus (% der Gesamtmenge in Suspension) ([3]; Fällung aus Eisessig with Wasser, Lösungsmittel-Gehalt der Suspension 33,3 %, ENZ in Suspension 33,3 mg/ml): 0,88% | ENZ in Lösung bei Fällung aus (% der Gesamtmenge in Suspension) ([3]; Fällung aus Eisessig with Wasser, Lösungsmittel-Gehalt der Suspension 50 %, ENZ in Suspension 50 mg/ml): 4,09% | ENZ in Lösung bei Fällung aus (% der Gesamtmenge in Suspension) ([3]; Fällung aus THF with Wasser, Lösungsmittel-Gehalt der Suspension 25 %, ENZ in Suspension 25 mg/ml): 1,46% | ENZ in Lösung bei Fällung aus (% der Gesamtmenge in Suspension) ([3]; Fällung aus THF with Wasser, Lösungsmittel-Gehalt der Suspension 33,3 %, ENZ in Suspension 33,3 mg/ml): 8,04% | ENZ in Lösung bei Fällung aus (% der Gesamtmenge in Suspension) ([3]; Fällung aus THF with Wasser, Lösungsmittel-Gehalt der Suspension 50 %, ENZ in Suspension 50 mg/ml): 33,8% | ENZ in Lösung bei Fällung aus (% der Gesamtmenge in Suspension) ([3]; THF, Lösungsmittel-Gehalt der Suspension 100 %, ENZ in Suspension 100 mg/ml): 100%

CCC(C)n1ncn(-c2ccc(N3CCN(c4ccc(OCC5COC(Cn6cncn6)(c6ccc(Cl)cc6Cl)O5)cc4)CC3)cc2)c1=O (centres unmarked) [ITZ, Itraconazol]
Sättigungslöslichkeit von ITZ [1, 4]: 2,500 mg/ml | Sättigungslöslichkeit von ITZ relativ zu der Sättigungslöslichkeit im Lösungsmittel [1, 4]: 100% | Sättigungslöslichkeit von ITZ [1, 17]: 0,0001 mg/ml | Sättigungslöslichkeit von ITZ relativ zu der Sättigungslöslichkeit im Lösungsmittel [1, 17]: 0,004% | Sättigungslöslichkeit von ITZ [1, 5]: 0,002 mg/ml | Sättigungslöslichkeit von ITZ relativ zu der Sättigungslöslichkeit im Lösungsmittel [1, 5]: 0,09% | Sättigungslöslichkeit von ITZ [1, 6]: 0,008 mg/ml | Sättigungslöslichkeit von ITZ relativ zu der Sättigungslöslichkeit im Lösungsmittel [1, 6]: 0,34% | Sättigungslöslichkeit von ITZ [1, 7]: 0,038 mg/ml | Sättigungslöslichkeit von ITZ relativ zu der Sättigungslöslichkeit im Lösungsmittel [1, 7]: 1,53% | Sättigungslöslichkeit von ITZ ([1]; Ameisensäure, Lösungsmittel-Gehalt der Mischung 100 %): 435 mg/mL | Sättigungslöslichkeit von ITZ [1, 18]: 0,01 mg/ml | Sättigungslöslichkeit von ITZ relativ zu der Sättigungslöslichkeit im Lösungsmittel [1, 18]: 0,002% | Sättigungslöslichkeit von ITZ [1, 8]: 157,8 mg/ml | Sättigungslöslichkeit von ITZ relativ zu der Sättigungslöslichkeit im Lösungsmittel [1, 8]: 100% | Sättigungslöslichkeit von ITZ [1, 9]: 0,028 mg/ml | Sättigungslöslichkeit von ITZ relativ zu der Sättigungslöslichkeit im Lösungsmittel [1, 9]: 0,02% | Sättigungslöslichkeit von ITZ [1, 10]: 0,009 mg/ml | Sättigungslöslichkeit von ITZ relativ zu der Sättigungslöslichkeit im Lösungsmittel [1, 10]: 0,01% | Sättigungslöslichkeit von ITZ [1, 11]: 0,210 mg/ml | Sättigungslöslichkeit von ITZ relativ zu der Sättigungslöslichkeit im Lösungsmittel [1, 11]: 0,13% | Sättigungslöslichkeit von ITZ [1, 12]: 1,455 mg/ml | Sättigungslöslichkeit von ITZ relativ zu der Sättigungslöslichkeit im Lösungsmittel [1, 12]: 0,92% | Sättigungslöslichkeit von ITZ [1, 19]: 0,289 mg/ml | Sättigungslöslichkeit von ITZ relativ zu der Sättigungslöslichkeit im Lösungsmittel [1, 19]: 100% | Sättigungslöslichkeit von ITZ [1, 20]: 0,009 mg/ml | Sättigungslöslichkeit von ITZ relativ zu der Sättigungslöslichkeit im Lösungsmittel [1, 20]: 2,95% | Sättigungslöslichkeit von ITZ [1, 21]: 0,006 mg/ml | Sättigungslöslichkeit von ITZ relativ zu der Sättigungslöslichkeit im Lösungsmittel [1, 21]: 2,08% | Sättigungslöslichkeit von ITZ [1, 22]: 0,002 mg/ml | Sättigungslöslichkeit von ITZ relativ zu der Sättigungslöslichkeit im Lösungsmittel [1, 22]: 0,69% | Sättigungslöslichkeit von ITZ [1, 23]: 0,102 mg/ml | Sättigungslöslichkeit von ITZ relativ zu der Sättigungslöslichkeit im Lösungsmittel [1, 23]: 34,36% | Sättigungslöslichkeit von ITZ [1, 13]: 4,255 mg/ml | Sättigungslöslichkeit von ITZ relativ zu der Sättigungslöslichkeit im Lösungsmittel [1, 13]: 100% | Sättigungslöslichkeit von ITZ [1, 24]: 0,001 mg/ml | Sättigungslöslichkeit von ITZ relativ zu der Sättigungslöslichkeit im Lösungsmittel [1, 24]: 0,02% | Sättigungslöslichkeit von ITZ [1, 14]: 0,002 mg/ml | Sättigungslöslichkeit von ITZ relativ zu der Sättigungslöslichkeit im Lösungsmittel [1, 14]: 0,05% | Sättigungslöslichkeit von ITZ [1, 15]: 0,013 mg/ml | Sättigungslöslichkeit von ITZ relativ zu der Sättigungslöslichkeit im Lösungsmittel [1, 15]: 0,29% | Sättigungslöslichkeit von ITZ [1, 16]: 0,677 mg/ml | Sättigungslöslichkeit von ITZ relativ zu der Sättigungslöslichkeit im Lösungsmittel [1, 16]: 15,91% | Sättigungslöslichkeit von ITZ ([1]; in Tetrahydrofuran, Aceton und Ethanol): < 5 mg/mL | Sättigungslöslichkeit von ITZ ([1]; in den Lösungsmitteln Ameisensäure und Eisessig): > 150 mg/mL
